The term Kd denotes the constant that tells how readily two partners part at equilibrium.

For eight molecules, Kd results are on record in ChEMBL document CHEMBL3991601, “The target landscape of clinical kinase drugs” (Science, 2017).

Activity calls are given as the source filed them.

Test [1] addresses STE20-like serine/threonine-protein kinase (Homo sapiens, UniProt Q9H2G2).
Test [2] has as its target Proto-oncogene tyrosine-protein kinase Src (Homo sapiens, UniProt P12931).
Test [3] addresses T1, Delta(24)-sterol reductase (Homo sapiens, UniProt Q15392).
T1 sequence (Q15392 whole entry): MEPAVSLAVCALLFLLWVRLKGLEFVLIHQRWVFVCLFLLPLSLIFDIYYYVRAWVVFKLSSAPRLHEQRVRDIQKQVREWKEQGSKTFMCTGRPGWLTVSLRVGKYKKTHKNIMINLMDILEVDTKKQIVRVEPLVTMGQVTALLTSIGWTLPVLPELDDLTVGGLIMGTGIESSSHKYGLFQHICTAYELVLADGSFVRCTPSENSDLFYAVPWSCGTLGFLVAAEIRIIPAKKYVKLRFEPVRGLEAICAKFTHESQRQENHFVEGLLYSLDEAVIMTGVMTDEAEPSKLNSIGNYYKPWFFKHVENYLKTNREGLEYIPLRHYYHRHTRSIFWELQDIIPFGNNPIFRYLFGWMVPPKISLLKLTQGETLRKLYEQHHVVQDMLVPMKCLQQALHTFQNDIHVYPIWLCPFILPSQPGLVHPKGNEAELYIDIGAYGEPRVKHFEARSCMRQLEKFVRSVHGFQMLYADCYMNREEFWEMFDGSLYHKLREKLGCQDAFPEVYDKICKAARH

The next test concerns the target GTP-binding protein 4 (Homo sapiens, UniProt Q9BZE4).
In test [4] the target is Serine/threonine-protein kinase SIK2 (Homo sapiens, UniProt Q9H0K1).
Test [5] concerns the target Protein-tyrosine kinase 2-beta (Homo sapiens, UniProt Q14289).
The target of test [6] is Glycogen synthase kinase-3 alpha (Homo sapiens, UniProt P49840).
In test [7] the target is Ras-related protein Rab-6A (Homo sapiens, UniProt P20340).
Test [8] concerns the target Tyrosine-protein kinase ABL1 (Homo sapiens, UniProt P00519).
In test [9] the target is Casein kinase I isoform gamma-1 (Homo sapiens, UniProt Q9HCP0).
Test [10] addresses Ribosomal protein S6 kinase beta-1 (Homo sapiens, UniProt P23443).
The target of test [11] is T2, Glycogen phosphorylase, brain form (Homo sapiens, UniProt P11216).
T2 sequence (P11216 whole entry): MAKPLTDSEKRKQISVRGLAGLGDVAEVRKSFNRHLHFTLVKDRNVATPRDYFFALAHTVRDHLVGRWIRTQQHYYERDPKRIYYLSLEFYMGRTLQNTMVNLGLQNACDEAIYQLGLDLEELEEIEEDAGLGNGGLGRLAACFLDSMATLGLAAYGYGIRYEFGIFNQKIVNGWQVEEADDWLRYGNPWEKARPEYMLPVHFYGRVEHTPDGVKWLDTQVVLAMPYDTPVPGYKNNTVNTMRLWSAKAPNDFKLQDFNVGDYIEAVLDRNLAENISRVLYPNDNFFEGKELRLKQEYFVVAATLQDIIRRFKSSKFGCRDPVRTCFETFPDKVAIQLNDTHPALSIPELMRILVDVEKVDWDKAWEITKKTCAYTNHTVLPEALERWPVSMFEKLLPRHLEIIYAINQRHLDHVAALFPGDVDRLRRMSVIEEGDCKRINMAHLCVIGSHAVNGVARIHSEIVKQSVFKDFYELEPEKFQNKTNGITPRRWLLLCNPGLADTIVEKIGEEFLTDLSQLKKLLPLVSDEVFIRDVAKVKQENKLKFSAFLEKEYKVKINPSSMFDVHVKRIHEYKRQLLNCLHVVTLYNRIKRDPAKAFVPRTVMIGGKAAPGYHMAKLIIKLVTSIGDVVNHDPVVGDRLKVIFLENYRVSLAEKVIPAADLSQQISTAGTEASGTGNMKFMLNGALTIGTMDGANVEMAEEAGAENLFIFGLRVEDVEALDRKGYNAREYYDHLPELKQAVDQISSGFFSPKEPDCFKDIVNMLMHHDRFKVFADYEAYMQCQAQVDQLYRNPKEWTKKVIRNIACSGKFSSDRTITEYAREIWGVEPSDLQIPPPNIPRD

The target in test [12] is Inosine-5'-monophosphate dehydrogenase 2 (Homo sapiens, UniProt P12268).
In the next test the target is T3, ADP/ATP translocase 2 (Homo sapiens, UniProt P05141).
T3 sequence (P05141 whole entry): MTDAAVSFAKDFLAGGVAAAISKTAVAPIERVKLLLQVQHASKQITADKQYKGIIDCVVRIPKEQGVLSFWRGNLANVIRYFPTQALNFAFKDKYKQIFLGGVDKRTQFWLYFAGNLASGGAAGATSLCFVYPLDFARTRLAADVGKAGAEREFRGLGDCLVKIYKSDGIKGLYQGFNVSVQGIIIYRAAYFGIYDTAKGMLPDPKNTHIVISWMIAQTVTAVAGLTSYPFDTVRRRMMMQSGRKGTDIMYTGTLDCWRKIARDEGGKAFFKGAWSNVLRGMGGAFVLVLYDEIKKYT

The target of test [13] is Mitogen-activated protein kinase 1 (Homo sapiens, UniProt P28482).
Also: in the data inactive means no Kd found up to 30 µM.

Sequence of Protein-tyrosine kinase 2-beta (Q14289 whole entry): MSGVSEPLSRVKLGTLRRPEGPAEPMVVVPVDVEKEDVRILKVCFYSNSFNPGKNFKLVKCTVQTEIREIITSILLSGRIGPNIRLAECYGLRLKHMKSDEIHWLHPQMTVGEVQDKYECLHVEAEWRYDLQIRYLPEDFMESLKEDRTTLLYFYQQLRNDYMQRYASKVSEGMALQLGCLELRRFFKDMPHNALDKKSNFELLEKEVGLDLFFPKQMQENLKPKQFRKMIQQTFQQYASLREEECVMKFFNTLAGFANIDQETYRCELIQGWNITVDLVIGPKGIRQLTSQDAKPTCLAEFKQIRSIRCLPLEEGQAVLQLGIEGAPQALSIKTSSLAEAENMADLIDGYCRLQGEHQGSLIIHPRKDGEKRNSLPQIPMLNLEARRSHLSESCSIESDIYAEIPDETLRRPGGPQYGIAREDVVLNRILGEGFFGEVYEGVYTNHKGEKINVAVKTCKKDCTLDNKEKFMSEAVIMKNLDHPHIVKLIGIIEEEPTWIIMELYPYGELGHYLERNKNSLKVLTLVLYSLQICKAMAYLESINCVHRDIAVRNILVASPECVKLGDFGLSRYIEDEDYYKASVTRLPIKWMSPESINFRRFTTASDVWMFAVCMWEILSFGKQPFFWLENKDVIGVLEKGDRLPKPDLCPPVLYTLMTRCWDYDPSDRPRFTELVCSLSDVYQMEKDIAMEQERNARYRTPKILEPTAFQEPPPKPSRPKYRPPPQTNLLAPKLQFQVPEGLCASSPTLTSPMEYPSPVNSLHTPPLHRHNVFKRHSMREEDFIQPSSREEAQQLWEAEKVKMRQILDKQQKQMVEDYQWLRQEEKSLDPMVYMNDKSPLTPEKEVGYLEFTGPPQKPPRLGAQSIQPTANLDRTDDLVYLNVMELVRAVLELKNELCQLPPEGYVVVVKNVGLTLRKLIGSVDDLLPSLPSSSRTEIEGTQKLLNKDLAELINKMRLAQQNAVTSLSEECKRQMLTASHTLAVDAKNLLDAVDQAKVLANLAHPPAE
Sequence of Glycogen synthase kinase-3 alpha (P49840 whole entry): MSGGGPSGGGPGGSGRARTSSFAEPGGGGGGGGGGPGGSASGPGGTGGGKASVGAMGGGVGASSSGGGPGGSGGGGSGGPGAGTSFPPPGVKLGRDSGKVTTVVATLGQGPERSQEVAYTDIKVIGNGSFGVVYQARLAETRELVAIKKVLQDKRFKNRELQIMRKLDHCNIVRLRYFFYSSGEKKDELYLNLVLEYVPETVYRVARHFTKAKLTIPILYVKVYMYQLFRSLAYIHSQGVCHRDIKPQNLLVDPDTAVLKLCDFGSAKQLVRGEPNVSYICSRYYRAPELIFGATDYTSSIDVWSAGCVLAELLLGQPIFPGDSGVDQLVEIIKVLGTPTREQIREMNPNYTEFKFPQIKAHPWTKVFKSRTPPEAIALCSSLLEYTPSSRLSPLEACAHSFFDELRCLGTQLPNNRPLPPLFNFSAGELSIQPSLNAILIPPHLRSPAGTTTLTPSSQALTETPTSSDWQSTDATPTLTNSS
Sequence of STE20-like serine/threonine-protein kinase (Q9H2G2 whole entry): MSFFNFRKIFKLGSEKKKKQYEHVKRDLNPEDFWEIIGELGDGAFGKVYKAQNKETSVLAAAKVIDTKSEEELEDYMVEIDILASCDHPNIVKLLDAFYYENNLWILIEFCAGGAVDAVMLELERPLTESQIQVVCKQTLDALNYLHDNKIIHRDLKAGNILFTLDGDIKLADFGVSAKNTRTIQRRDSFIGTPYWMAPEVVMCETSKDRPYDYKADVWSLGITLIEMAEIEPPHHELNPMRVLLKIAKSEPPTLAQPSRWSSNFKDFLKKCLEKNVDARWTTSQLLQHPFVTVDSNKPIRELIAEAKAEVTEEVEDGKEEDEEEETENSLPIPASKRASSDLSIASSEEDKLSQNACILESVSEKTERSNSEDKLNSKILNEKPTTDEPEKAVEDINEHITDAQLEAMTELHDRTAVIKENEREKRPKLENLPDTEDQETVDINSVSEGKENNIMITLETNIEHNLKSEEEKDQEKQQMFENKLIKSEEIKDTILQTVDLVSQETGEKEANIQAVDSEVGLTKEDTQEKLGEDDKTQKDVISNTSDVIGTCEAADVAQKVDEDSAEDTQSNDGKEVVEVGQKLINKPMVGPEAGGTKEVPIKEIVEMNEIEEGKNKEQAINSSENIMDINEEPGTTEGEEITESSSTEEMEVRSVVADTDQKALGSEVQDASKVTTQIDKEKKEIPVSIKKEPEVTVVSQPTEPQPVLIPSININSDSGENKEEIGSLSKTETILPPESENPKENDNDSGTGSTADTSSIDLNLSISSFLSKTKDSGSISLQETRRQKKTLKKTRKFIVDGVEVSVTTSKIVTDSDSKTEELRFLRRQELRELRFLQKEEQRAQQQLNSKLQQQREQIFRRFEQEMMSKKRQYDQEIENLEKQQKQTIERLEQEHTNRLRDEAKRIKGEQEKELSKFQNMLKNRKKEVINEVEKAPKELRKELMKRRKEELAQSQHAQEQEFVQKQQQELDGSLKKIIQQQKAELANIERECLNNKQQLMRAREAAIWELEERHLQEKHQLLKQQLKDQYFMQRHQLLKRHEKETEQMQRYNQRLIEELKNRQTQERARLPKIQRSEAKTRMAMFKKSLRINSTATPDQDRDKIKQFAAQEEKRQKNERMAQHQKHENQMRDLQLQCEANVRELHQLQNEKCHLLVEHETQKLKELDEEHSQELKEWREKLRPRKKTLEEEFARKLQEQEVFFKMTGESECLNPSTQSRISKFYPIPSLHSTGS
Sequence of Casein kinase I isoform gamma-1 (Q9HCP0 whole entry, canonical isoform): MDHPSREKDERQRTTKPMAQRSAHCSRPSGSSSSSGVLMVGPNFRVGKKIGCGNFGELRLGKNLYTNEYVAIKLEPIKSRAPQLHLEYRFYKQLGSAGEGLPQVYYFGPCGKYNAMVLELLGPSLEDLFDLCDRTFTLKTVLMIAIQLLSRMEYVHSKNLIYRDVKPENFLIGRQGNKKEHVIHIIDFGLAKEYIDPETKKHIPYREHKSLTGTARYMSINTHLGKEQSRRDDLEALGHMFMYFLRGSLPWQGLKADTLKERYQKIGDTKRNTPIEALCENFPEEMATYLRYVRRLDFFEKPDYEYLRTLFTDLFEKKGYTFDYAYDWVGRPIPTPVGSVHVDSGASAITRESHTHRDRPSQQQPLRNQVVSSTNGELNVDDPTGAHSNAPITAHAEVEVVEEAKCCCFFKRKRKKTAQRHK
Sequence of Mitogen-activated protein kinase 1 (P28482 whole entry): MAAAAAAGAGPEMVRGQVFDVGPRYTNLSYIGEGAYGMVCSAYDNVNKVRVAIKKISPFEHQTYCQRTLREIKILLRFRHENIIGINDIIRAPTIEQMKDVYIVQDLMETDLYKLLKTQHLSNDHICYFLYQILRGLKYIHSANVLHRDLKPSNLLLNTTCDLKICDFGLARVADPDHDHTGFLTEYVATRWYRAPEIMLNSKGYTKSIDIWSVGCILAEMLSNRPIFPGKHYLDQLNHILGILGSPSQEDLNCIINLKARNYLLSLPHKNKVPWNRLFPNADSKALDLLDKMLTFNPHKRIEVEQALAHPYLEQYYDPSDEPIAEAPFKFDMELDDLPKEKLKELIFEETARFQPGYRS
Sequence of Ras-related protein Rab-6A (P20340 whole entry): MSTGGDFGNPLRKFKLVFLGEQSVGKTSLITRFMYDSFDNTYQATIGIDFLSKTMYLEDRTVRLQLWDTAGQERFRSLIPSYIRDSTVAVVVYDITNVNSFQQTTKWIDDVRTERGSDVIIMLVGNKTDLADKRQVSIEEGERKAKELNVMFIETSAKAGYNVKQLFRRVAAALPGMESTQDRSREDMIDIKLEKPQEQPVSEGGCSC
Sequence of Ribosomal protein S6 kinase beta-1 (P23443 whole entry): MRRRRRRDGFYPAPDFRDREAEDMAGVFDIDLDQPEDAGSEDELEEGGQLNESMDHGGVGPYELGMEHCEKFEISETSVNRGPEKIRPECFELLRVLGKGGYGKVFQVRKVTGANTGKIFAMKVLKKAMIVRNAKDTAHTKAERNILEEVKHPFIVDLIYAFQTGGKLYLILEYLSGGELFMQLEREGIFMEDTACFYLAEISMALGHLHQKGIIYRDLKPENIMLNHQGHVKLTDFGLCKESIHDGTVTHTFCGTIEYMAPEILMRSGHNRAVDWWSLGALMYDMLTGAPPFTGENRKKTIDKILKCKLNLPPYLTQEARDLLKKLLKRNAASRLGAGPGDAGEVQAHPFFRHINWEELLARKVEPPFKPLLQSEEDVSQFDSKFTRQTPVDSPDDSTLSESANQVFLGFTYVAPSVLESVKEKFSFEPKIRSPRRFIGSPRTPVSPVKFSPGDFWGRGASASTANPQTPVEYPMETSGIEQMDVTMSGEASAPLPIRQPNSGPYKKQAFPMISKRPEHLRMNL
Sequence of Proto-oncogene tyrosine-protein kinase Src (P12931 2-536 limits assumed): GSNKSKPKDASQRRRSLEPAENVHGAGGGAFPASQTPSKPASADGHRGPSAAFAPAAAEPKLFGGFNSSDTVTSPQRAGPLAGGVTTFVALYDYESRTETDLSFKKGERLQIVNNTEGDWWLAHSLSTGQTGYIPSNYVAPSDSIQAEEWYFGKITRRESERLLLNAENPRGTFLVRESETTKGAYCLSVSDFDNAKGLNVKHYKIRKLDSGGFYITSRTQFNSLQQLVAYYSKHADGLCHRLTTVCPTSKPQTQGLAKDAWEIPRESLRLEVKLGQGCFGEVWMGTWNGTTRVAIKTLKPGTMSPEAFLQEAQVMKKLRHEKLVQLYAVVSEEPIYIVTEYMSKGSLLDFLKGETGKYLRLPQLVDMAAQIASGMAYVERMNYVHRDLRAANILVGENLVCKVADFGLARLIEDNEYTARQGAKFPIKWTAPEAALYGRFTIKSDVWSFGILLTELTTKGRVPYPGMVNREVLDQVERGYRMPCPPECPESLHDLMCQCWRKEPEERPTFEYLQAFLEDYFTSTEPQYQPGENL

As to `C=CC(=O)Nc1cccc(Nc2nc(Nc3ccc(N4CCN(C(C)=O)CC4)cc3OC)ncc2C(F)(F)F)c1` [ROCILETINIB], the Kd (in test [1]; in [2]; in [3]; on GTP-binding protein 4; in test [4]; in test [5]) was > 30 µM (inactive) in each case. The Kd in [6], in [7], in [8], in test [9], in test [10] and in test [11] was > 30 µM (inactive) each time. Also, the Kd (in test [12]; on ADP/ATP translocase 2; in test [13]) was > 30 µM (inactive) throughout.
Turning to `Cc1c(Cn2c(C)nc3c(C(=O)O)cc(N4CCOCC4)cc32)cccc1C(F)(F)F` [GSK-2636771], the Kd (in test [1]; in test [2]; in test [3]; on GTP-binding protein 4; in test [4]; in [5]) was > 30 µM (inactive) each time. In addition, the Kd in test [6], in test [7], in [8], in test [9], in test [10] and in test [11] was > 30 µM (inactive) in each case. In addition, the Kd (in [12]; on ADP/ATP translocase 2; in [13]) was > 30 µM (inactive) in each case.
In the case of `COc1cc2ncnc(Nc3ccc(O)cc3)c2cc1OC` [WHI-P131], the Kd in [1] is 4.37 µM (active); in test [2] it was > 30 µM (inactive); in test [3] it was > 30 µM (inactive); at GTP-binding protein 4, > 30 µM (inactive); in [4], > 30 µM (inactive); in test [5], > 30 µM (inactive). Moreover, the Kd in test [6], in [7], in test [8], in [9], in test [10] and in [11] was > 30 µM (inactive) in each case. Further, the Kd (in test [12]; on ADP/ATP translocase 2; in test [13]) was > 30 µM (inactive) each time.
In the case of `Cn1c(=O)c(F)c(Nc2ccc(I)cc2F)c2c(=O)n(C[C@@H](O)CO)cnc21` [TAK-733], the Kd (in test [1]; in test [2]; in [3]; on GTP-binding protein 4; in test [4]; in test [5]) was > 30 µM (inactive) in each case. In addition, the Kd in [6], in [7], in test [8], in [9], in test [10] and in test [11] was > 30 µM (inactive) in each case. Moreover, the Kd (in test [12]; on ADP/ATP translocase 2; in test [13]) was > 30 µM (inactive) throughout.
For `C=CC(=O)Nc1cc(Nc2nccc(-c3cn(C)c4ccccc34)n2)c(OC)cc1N(C)CCN(C)C` [OSIMERTINIB], the Kd (in test [1]; in [2]; in [3]; on GTP-binding protein 4; in test [4]; in test [5]) was > 30 µM (inactive) each time. Moreover, the Kd in [6], in test [7], in test [8], in [9], in [10] and in [11] was > 30 µM (inactive) throughout. The Kd (in test [12]; at ADP/ATP translocase 2; in test [13]) was > 30 µM (inactive) each time.
For `COCCN1CCN(Cc2ccc(-c3n[nH]c4c3C(=O)c3c(NC(=O)NN5CCOCC5)cccc3-4)cc2)CC1` [RGB-286638], the Kd in test [1] was > 30 µM (inactive); in test [2] it was > 30 µM (inactive); in [3] it was > 30 µM (inactive); on GTP-binding protein 4, > 30 µM (inactive); in test [4] it was 0.207 µM (active); in [5], > 30 µM (inactive). The dissociation constant (Kd) is 0.007 µM (active) in [6]; > 30 µM (inactive) in test [7]; > 30 µM (inactive) in test [8]; 3.18 µM (active) in test [9]; > 30 µM (inactive) in [10]; > 30 µM (inactive) in test [11]. The Kd (in test [12]; at ADP/ATP translocase 2; in test [13]) was > 30 µM (inactive) in each case.
As to `C[C@@H]1COC(Nc2ccc3ncnc(Nc4ccc(OCc5nccs5)c(Cl)c4)c3c2)=N1` [VARLITINIB], the Kd (in test [1]; in [2]; in test [3]; on GTP-binding protein 4; in test [4]; in test [5]) was > 30 µM (inactive) throughout. In addition, the Kd in test [6], in [7], in [8], in [9], in [10] and in test [11] was > 30 µM (inactive) each time. Besides, the Kd (in test [12]; at ADP/ATP translocase 2; in [13]) was > 30 µM (inactive) in each case.
For `O=C(NC[C@H](O)CO)c1ccncc1Nc1ccc(I)cc1F` [PIMASERTIB], the Kd (in [1]; in test [2]; in test [3]; on GTP-binding protein 4; in [4]; in [5]) was > 30 µM (inactive) each time. Also, the Kd in [6], in test [7], in test [8], in test [9], in [10] and in test [11] was > 30 µM (inactive) each time. The Kd (in [12]; at ADP/ATP translocase 2; in test [13]) was > 30 µM (inactive) in each case.
